Source: patent US10669310B2, “Peptide for cancer treatment and pharmaceutical composition containing same” (TOKUSHIMA UNIVERSITY, priority 2016, dated 2020)

Tests used:
MCF-7 cells = type: cell-based, human
Protocol: (§1) Human breast cancer cell line MCF-7 and mammary epithelial cell line MCF-10A were purchased from American Type Culture Collection (ATCC, Manassas, Va., USA). Breast cancer cell line KPL-3C (J. Kurebayashi, et al., Br. J. Cancer 74, 200-207 (1996)) was kindly provided by Dr. Junichi Kurebayashi (Kawasaki Medical School). All cell lines were monolayer cultured in an appropriate medium supplemented with 10% FBS. The cells were maintained at 37° C. under humidified atmosphere containing 5% CO2.
(§2) In each experiment, the respective cells were seeded in a 48-well plate (2×10^4 cells/mL), a 6-well plate (3×10^5 cells/mL), or a 10-cm dish (2×10^6 cells/10 mL). MCF-7 cells were seeded in MEM (Thermo Fisher Scientific) supplemented with 10% FBS (Nichirei Biosciences Inc., Tokyo, Japan), 1% Antibiotic/Antimycotic solution (Thermo Fisher Scientific, Waltham, Mass., USA), 0.1 mM NEAA (Thermo Fisher Scientific), 1 mM sodium pyruvate (Thermo Fisher Scientific), and 10 μg/mL insulin (Sigma, St. Louis, Mo., USA). KPL-3C cells were seeded in RPMI (Thermo Fisher Scientific) supplemented with 10% FBS and 1% Antibiotic/Antimycotic solution. MCF-10A cells were seeded in MEBM (Lonza) supplemented with a Single Quots kit (BPE, hydrocortisone, hEGF, insulin, gentamycin/amphoterin-B) (Lonza, Walkersville, Md., USA) and 100 ng/mL cholera toxin. For 17β-estradiol (E2) (Sigma) stimulation, the media for MCF-7 and KPL-3C were changed to phenol red-free DMEM/F12 (Thermo Fisher Scientific) supplemented with 10% FBS, 1% Antibiotic/Antimycotic solution, 0.1 mM NEAA, 1 mM sodium pyruvate, and 10 μg/mL insulin on the day after seeding. Twenty-four hours later, the cells were treated with 10 nM E2 and a peptide (for example, 11R-ERAP or a stapled ERAP), or with 10 nM E2 alone.
When carrying out treatment with tamoxifen (Sigma) or fulvestrant (LKT laboratories, St. Paul, Minn., USA), cells were treated with 10 nM tamoxifen or 2 μM fulvestrant simultaneously with the above-mentioned treatment with E2 and a peptide or with E2 alone.
Cell growth assays on MCF-7, KPL-3C, and MCF-10A were carried out as described previously using a Cell Counting Kit-8 (CCK-8) (Dojindo, Kumamoto, Japan) (T. Yoshimaru, et al., Nat. Commun. 4, 2443 (2013)). The data are shown by mean±SE of three independent experiments.

MCF-10A cells = test: Cell growth (MTT) assay, MCF-10A cells; type: cell-based, human; conditions: normal mammary epithelial cells, ERα-negative and BIG3-negative
Protocol: as §1
as §2, with “For 17β-estradiol (E2) (Sigma) stimulation, the media for MCF-7 and KPL-3C were changed to phenol red-free DMEM/F12 (Thermo Fisher Scientific) supplemented with 10% FBS, 1% Antibiotic/Antimycotic solution, 0.1 mM NEAA, 1 mM sodium pyruvate, and 10 μg/mL insulin on the day after seeding. Twenty-four hours later, the cells were treated with 10 nM E2 and a peptide (for example, 11R-ERAP or a stapled ERAP), or with 10 nM E2 alone.” left out

BIG3-PHB2 interaction = target: T1, BIG3-PHB2 interaction (Homo sapiens, UniProt Q99623); test: Co-immunoprecipitation with anti-BIG3 antibody in MCF-7 cells; type: cell-based; conditions: MCF-7, 1 μM, 24 hours after treatment
T1 construct: complex formation between the endogenous BIG3 and PHB2 in ERα-positive breast cancer cell line MCF-7; endogenous in cells; host or cells: MCF-7
T1 sequence (Q99623 2-299 limits assumed): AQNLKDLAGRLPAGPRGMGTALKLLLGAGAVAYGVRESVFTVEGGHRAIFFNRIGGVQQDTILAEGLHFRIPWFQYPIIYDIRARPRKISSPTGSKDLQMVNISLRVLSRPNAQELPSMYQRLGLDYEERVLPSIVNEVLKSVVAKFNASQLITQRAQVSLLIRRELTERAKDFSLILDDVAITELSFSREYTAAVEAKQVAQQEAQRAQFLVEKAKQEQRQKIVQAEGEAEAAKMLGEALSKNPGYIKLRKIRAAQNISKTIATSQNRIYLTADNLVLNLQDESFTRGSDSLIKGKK
Protocol: Immunoblot analyses were performed as described previously (T. Yoshimaru, et al., Nat. Commun. 4, 2443 (2013)). After performing SDS-PAGE, the membranes blotted with proteins were blocked with 4% BlockAce solution (Dainippon Pharmaceutical, Osaka, Japan) for three hours and then incubated with antibodies against the following proteins: BIG3 (1:1,000) (T. Yoshimaru, et al., Nat. Commun. 4, 2443 (2013)); PHB2 (1:1,000) (Abeam, Cambridge, UK); Akt, phosphorylated Akt (S473) (587F11, 1:1,000); p44/42 MAPK, phosphorylated p44/42 MAPK (T202/Y204) (1:1,000); α/β-tubulin (1:1,000) (Cell Signaling Technology, Danvers, Mass., USA); and LMNB1 (1:100) (Sigma). After incubation with an HRP-labeled secondary antibody (anti-mouse IgG-HRP, 1:5,000; anti-rat IgG-HRP; 1:5,000; or anti-rabbit IgG-HRP, 1:1,000) (Santa Cruz Biotechnology, Dallas, Tex., USA) for one hour, the blots were developed with an Enhanced Chemiluminescence (ECL) system (GE Healthcare, Buckinghamshire, UK) and scanned using an Image Reader LAS-3000 mini (Fujifilm, Tokyo, Japan). All the experiments were performed at least in triplicate.
Immunoprecipitation analysis was performed as described previously (T. Yoshimaru, et al., Nat. Commun. 4, 2443 (2013)). Cell lysates were pre-cleared with normal IgG and rec-Protein G Sepharose 4B (Thermo Fisher Scientific) at 4° C. for three hours. Then, the supernatants were incubated with 5 μg of an antibody against BIG3 or an antibody against PHB2 at 4° C. for twelve hours. Next, the antigen-antibody complexes were precipitated using rec-Protein G Sepharose 4B at 4° C. for one hour. The immunoprecipitated protein complexes were washed several times with a lysis buffer. Then, SDS-PAGE and immunoblot analyses were carried out as described above.

[1] = test system: KPL-3C orthotopic breast cancer xenografts; test: In vivo tumor growth inhibition, KPL-3C orthotopic xenograft, intraperitoneal; set-up: species or system BALB/c nude mice; conditions: 1 mg/kg or 0.1 mg/kg i.p. every four or seven days, up to 28 days
Protocol: KPL-3C cell suspensions (1×10^7 cells/mouse) were mixed with an equal volume of Matrigel (BD) and injected (200 μL in total) into the mammary fat pads of 6-week-old female BALB/c nude mice (Charles River Laboratories, Tokyo, Japan). The mice were housed in a pathogen-free isolation facility with a twelve-hour light/dark cycle and were fed solid rodent chow and water ad libitum. The tumors developed over several days and reached sizes of approximately 100 mm^3 [calculated as ½×(width×length^2)]. The mice were randomized into the following eleven treatment groups (five heads per group):
E2 was administered via application of a solution to the neck skin, and regarding the other treatments, administration was performed via intraperitoneal injection unless other administration methods are stated. The tumor volume was measured with calipers for 28 days, and then the mice were subjected to scheduled sacrifice to remove tumors. All the experiments were performed in accordance with the guidelines of the animal facility at Tokushima University.

[2] = test system: ERα target genes TFF1 and CCND1; test: ERα target gene expression in removed tumors; type: in vivo, BALB/c nude mice; conditions: 0.02, 0.1 or 1 mg/kg i.p. every four days or every seven days
Protocol: The expression of the ERα target genes (TFF1 and CCND1) was evaluated by real-time RT-PCR as described previously (T. Yoshimaru, et al., Nat. Commun. 4, 2443 (2013)). Each sample was normalized to the β2-MG mRNA content, and the results were expressed as multiples (-fold) of the expression level in untreated cells, with that level being defined as 1.0. The data represent the mean±SD of three independent experiments. The primers used for RT-PCR were as follows: […]

CSCC[C@@H](NC(=O)[C@H]1CCC(=O)NCCCCNC(=O)CC[C@@H](NC(=O)[C@@H](CC(C)C)NC(=O)[C@@H](CCC(N)=O)NC(=O)[C@@H](CC(C)C)NC(=O)[C@@H](CCCNC(=N)N)NC(=O)[C@@H](CCC(N)=O)NC(=O)[C@@H](CCCNC(=N)N)NC(C)=O)C(=O)N[C@H](CC(C)C)C(=O)N[C@H](CC(=O)O)C(=O)N[C@H](CO)C(=O)N1)C(=O)N[C@H](CCC(N)=O)C(N)=O [RI stapled ERAP No. 12]
duration of significant cell growth inhibitory effects (MCF-7 cells; 1 μM, E2-dependent growth of MCF-7): seven | IC50 (MCF-7 cells; 96 h): 500 nM | effect on MCF-10A cell growth (MCF-10A cells): not inhibited | inhibition of endogenous BIG3-PHB2 complex formation (BIG3-PHB2 interaction): inhibited endogenous BIG3-PHB2 complex formation | E2-dependent tumor growth [1]: almost fully inhibited | E2-dependent expression of TFF1 and CCND1 in tumors [2]: significantly suppressed
